Data: ChEMBL document CHEMBL3817795, “Identification and optimisation of a series of N-(4-anilino-2-pyridyl)acetamide activin receptor-like kinase 1 (ALK1) inhibitors” (Medchemcomm, 2016)
Values after ≈ are worked out from the molar mass of the structure shown.

Key:
[1] = target: Serine/threonine-protein kinase D1 (Homo sapiens) (UniProt Q15139); test: Inhibition of human recombinant full-length PKD1 expressed in insect Sf21 cells at 1 uM using KKLNRTLSVA as substrate after 30 mins
[2] = target: Proto-oncogene tyrosine-protein kinase Src (Homo sapiens) (UniProt P12931); test: Inhibition of human recombinant full-length Src expressed in insect Sf21 cells at 1 uM using KVEKIGEGTYGVVYK as substrate after 30 mins
Homo sapiens = species: Homo sapiens; test: Inhibition of human recombinant full-length PKA expressed in Escherichia coli at 1 uM using LRRASLG as substrate after 30 mins
[3] = target: MAP/microtubule affinity-regulating kinase 3 (Homo sapiens) (UniProt P27448); test: Inhibition of human recombinant full-length MARK3 expressed in insect Sf21 cells at 1 uM using KKKVSRSGLYRSPSMPENLNRPR as substrate after 30 mins
[4] = target: TGF-beta receptor type-1 (Homo sapiens) (UniProt P36897); test: Inhibition of ALK5 in recombinant human MDA-MB-468 cells assessed as translocation of GFP-smad2; format: cell-based
[5] = target: Activin receptor type-1-like (Homo sapiens, UniProt P37023); test: Inhibition of human recombinant GST-tagged ALK1 expressed in baculovirus by FRET assay
[6] = target: Mitogen-activated protein kinase 8 (Homo sapiens) (UniProt P45983); test: Inhibition of JNK1 (unknown origin) at 1 uM after 30 mins
[7] = Lipophilicity, log D of the compound at pH 7.4; format: physicochemical; settings: buffer
[8] = target: Ribosomal protein S6 kinase alpha-3 (Homo sapiens) (UniProt P51812); test: Inhibition of MAPKAPK1B (unknown origin) at 1 uM
[9] = target: Homeodomain-interacting protein kinase 2 (Homo sapiens) (UniProt Q9H2X6); test: Inhibition of human recombinant HIPK2 (165 to 564 residues) expressed in Escherichia coli at 1 uM after 30 mins
[10] = target: Myosin light chain kinase, smooth muscle (Homo sapiens) (UniProt Q15746); test: Inhibition of human recombinant smMLCK (475 to 838 residues) expressed in Escherichia coli at 1 uM using KKRPQRATSNVFA as substrate after 30 mins
[11] = target: Tyrosine-protein kinase Yes (Homo sapiens) (UniProt P07947); test: Inhibition of human recombinant full-length YES1 expressed in insect Sf21 cells at 1 uM using poly(Glu4-Tyr1) as substrate after 30 mins
[12] = target: Dual specificity tyrosine-phosphorylation-regulated kinase 1A (Homo sapiens) (UniProt Q13627); test: Inhibition of human recombinant DYRK1A (1 to 499 residues) expressed in Escherichia coli at 1 uM using KKISGRLSPIMTEQ as substrate after 30 mins
[13] = target: Bone morphogenetic protein receptor type-1A (Homo sapiens, UniProt P36894); test: Inhibition of human recombinant N-terminal GST-tagged ALK3 (187 to 432 residues) expressed in insect cells by FRET assay
[14] = target: Lymphokine-activated killer T-cell-originated protein kinase (Homo sapiens) (UniProt Q96KB5); test: Inhibition of human recombinant full-length PBK at 1 uM after 30 mins
[15] = target: Serine/threonine-protein kinase Nek2 (Homo sapiens) (UniProt P51955); test: Inhibition of human recombinant full-length NEK2a expressed in insect Sf21 cells at 1 uM using RFRRSRRMI as substrate after 30 mins
[16] = target: Aurora kinase B (Homo sapiens) (UniProt Q96GD4); test: Inhibition of human recombinant full-length AurKB expressed in insect Sf21 cells at 1 uM using LRRLSLGLRRLSLGLRRLSLGLRRLSLG as substrate after 30 mins
[17] = target: Serine/threonine-protein kinase Nek6 (Homo sapiens) (UniProt Q9HC98); test: Inhibition of human recombinant NEK6 (8 to 313 residues) expressed in insect Sf21 cells at 1 uM using FLAKSFGSPNRAYKK as substrate after 30 mins
Activin receptor type-1B = Activin receptor type-1B (Homo sapiens, UniProt P36896); test: Inhibition of human recombinant GST-tagged ALK4 expressed in baculovirus by FRET assay
[18] = target: MAP kinase-activated protein kinase 5 (Homo sapiens) (UniProt Q8IW41); test: Inhibition of MAPKAPK5 (unknown origin) at 1 uM
[19] = target: Ribosomal protein S6 kinase beta-1 (Homo sapiens) (UniProt P23443); test: Inhibition of P70S6K (unknown origin) at 1 uM
[20] = Solubility of the compound; format: physicochemical
Mus musculus = test: Free Cmax in nude mouse at 50 mg/kg, po administered as single dose after 24 hrs; format: ADME, organism-based; settings: in vivo
[21] = target: Inhibitor of nuclear factor kappa-B kinase subunit beta (Homo sapiens) (UniProt O14920); test: Inhibition of human recombinant full-length IKKbeta expressed in insect Sf21 cells at 1 uM using LDDRHDSGLDSMKDEEY as substrate after 30 mins
[22] = target: Protein kinase C zeta type (Homo sapiens) (UniProt Q05513); test: Inhibition of PKCz (unknown origin) at 1 uM
[23] = target: Tyrosine-protein kinase CSK (Homo sapiens) (UniProt P41240); test: Inhibition of human recombinant full-length CSK at 1 uM after 30 mins
[24] = target: Vascular endothelial growth factor receptor 1 (Homo sapiens) (UniProt P17948); test: Inhibition of human recombinant full-length FLT1 at 1 uM after 30 mins
[25] = target: Proto-oncogene tyrosine-protein kinase Src (Homo sapiens) (UniProt P12931); test: Inhibition of Src (unknown origin) by HTRF assay
[26] = Clearance in Han Wistar rat; format: ADME, organism-based; settings: in vivo
[27] = target: Glycogen synthase kinase-3 beta (Homo sapiens) (UniProt P49841); test: Inhibition of human recombinant full-length GSK3beta at 1 uM after 30 mins
[28] = target: Serine/threonine-protein kinase TBK1 (Homo sapiens) (UniProt Q9UHD2); test: Inhibition of human recombinant full-length TBK1 expressed in insect Sf21 cells at 1 uM using AKPKGNKDYHLQTCCGSLAYRRR as substrate
[29] = target: Mitogen-activated protein kinase 11 (Homo sapiens) (UniProt Q15759); test: Inhibition of human recombinant full-length p38beta at 1 uM after 30 mins
[30] = Ratio of free drug level in nude mouse at 5 umol/kg administered as single dose after 24 hrs to IC50 for ALK1 in HMEC-1; format: ADME; settings: in vivo
[31] = target: Cyclin-dependent kinase 2 (Homo sapiens) (UniProt P24941); test: Inhibition of human recombinant full-length CDK2 expressed in Escherichia coli at 1 uM after 30 mins
[32] = target: Mitogen-activated protein kinase 13 (Homo sapiens) (UniProt O15264); test: Inhibition of MAPK13 (unknown origin) at 1 uM
[33] = target: Eukaryotic elongation factor 2 kinase (Homo sapiens) (UniProt O00418); test: Inhibition of human recombinant full-length EF2K expressed in Escherichia coli at 1 uM using RKKFGESKTKTKEFL as substrate after 30 mins

Proto-oncogene tyrosine-protein kinase Src (Homo sapiens), sequence (P12931 2-536 limits assumed): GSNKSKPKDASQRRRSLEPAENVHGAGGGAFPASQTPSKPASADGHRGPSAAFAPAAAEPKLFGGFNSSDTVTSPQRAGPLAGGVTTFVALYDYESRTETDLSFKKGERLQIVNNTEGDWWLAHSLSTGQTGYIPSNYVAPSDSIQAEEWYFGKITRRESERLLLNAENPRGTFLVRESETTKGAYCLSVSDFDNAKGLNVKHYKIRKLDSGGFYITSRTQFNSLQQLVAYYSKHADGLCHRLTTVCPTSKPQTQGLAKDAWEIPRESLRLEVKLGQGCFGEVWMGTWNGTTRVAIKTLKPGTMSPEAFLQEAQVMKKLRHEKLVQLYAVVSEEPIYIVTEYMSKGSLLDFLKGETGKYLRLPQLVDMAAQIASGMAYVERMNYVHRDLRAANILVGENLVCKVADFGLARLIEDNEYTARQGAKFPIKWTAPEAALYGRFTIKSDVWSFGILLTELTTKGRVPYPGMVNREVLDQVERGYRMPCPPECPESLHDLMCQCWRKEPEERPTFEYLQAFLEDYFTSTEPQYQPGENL
Homeodomain-interacting protein kinase 2 (Homo sapiens), sequence (Q9H2X6 whole entry, looked up, the tested form may be a part): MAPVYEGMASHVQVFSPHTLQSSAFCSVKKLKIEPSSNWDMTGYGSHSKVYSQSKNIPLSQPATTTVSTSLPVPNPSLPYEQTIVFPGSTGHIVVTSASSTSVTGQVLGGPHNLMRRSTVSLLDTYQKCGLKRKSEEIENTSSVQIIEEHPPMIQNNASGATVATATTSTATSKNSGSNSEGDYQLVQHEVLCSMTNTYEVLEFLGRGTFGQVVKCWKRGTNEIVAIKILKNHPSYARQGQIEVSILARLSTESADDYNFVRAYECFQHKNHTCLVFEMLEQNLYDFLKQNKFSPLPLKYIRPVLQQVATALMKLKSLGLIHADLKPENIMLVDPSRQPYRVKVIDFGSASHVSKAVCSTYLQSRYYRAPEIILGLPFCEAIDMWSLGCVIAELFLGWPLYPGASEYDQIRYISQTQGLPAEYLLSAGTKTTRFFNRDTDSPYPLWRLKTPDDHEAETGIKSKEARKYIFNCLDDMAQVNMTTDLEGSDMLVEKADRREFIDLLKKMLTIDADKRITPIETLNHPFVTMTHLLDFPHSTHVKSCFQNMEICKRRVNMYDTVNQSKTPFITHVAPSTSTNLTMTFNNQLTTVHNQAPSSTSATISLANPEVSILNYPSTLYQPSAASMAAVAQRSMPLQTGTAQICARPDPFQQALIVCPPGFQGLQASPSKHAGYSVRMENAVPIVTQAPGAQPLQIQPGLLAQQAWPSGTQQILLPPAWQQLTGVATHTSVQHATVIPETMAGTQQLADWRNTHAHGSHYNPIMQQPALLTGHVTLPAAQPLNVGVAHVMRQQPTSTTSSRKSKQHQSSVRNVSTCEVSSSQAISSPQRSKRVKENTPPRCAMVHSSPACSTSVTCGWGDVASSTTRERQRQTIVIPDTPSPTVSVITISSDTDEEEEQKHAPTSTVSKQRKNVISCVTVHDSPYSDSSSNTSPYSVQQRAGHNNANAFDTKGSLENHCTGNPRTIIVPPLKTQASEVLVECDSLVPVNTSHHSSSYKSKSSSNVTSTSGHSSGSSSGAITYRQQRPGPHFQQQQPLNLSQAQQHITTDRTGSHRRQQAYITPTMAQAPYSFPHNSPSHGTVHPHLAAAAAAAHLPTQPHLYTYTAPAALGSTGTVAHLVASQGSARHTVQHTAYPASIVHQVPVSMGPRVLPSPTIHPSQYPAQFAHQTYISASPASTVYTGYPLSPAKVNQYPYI
Inhibitor of nuclear factor kappa-B kinase subunit beta (Homo sapiens), sequence (O14920 whole entry): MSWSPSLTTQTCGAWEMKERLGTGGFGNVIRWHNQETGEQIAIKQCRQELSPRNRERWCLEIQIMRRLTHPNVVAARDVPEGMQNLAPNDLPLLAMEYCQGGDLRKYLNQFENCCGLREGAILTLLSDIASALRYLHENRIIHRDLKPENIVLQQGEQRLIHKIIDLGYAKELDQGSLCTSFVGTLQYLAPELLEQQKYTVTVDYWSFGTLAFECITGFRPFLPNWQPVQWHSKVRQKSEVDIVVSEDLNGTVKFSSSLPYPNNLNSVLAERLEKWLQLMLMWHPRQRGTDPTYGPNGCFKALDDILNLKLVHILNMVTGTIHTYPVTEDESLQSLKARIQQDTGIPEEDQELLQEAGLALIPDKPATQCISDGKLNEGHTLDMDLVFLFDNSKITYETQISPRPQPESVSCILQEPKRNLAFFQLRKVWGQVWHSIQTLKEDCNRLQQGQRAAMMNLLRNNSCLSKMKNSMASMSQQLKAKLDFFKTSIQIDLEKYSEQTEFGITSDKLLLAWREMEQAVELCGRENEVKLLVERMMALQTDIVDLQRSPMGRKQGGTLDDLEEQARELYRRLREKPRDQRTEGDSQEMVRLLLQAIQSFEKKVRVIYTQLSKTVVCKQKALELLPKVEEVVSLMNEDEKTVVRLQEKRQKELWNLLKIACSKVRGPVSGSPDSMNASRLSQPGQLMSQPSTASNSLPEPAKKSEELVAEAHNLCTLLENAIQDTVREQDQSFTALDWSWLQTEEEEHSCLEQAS
Mitogen-activated protein kinase 11 (Homo sapiens), sequence (Q15759 whole entry): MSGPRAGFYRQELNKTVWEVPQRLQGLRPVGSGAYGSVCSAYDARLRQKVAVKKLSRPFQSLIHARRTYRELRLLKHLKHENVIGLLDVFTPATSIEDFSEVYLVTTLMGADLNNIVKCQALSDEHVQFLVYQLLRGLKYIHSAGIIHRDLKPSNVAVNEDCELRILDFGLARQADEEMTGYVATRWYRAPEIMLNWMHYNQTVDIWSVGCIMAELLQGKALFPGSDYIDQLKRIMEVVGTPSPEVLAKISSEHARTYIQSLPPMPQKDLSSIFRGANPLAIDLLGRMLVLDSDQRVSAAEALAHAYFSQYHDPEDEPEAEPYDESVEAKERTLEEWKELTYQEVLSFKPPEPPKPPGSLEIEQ
Tyrosine-protein kinase Yes (Homo sapiens), sequence (P07947 2-543 limits assumed): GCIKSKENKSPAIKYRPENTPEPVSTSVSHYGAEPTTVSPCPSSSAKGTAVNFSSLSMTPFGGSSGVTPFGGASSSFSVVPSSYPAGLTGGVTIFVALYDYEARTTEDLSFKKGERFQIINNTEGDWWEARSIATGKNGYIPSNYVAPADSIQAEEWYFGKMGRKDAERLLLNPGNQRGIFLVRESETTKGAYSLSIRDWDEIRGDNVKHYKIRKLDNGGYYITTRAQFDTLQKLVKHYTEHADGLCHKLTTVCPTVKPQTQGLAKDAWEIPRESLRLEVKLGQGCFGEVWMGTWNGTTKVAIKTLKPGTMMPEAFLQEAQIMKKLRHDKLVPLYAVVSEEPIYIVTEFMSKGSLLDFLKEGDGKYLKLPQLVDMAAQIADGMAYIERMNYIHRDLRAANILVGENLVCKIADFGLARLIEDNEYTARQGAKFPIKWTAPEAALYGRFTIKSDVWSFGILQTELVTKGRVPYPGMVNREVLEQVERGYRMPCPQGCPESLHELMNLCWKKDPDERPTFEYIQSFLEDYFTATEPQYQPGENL
Lymphokine-activated killer T-cell-originated protein kinase (Homo sapiens), sequence (Q96KB5 whole entry): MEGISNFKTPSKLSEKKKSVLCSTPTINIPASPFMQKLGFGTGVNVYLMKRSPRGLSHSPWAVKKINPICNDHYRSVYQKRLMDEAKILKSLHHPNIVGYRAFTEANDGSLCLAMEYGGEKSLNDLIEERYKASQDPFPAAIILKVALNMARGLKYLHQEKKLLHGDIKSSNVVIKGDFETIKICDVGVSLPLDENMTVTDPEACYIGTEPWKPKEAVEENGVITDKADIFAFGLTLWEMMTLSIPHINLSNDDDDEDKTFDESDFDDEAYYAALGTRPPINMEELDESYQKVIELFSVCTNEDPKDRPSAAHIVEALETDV
Mitogen-activated protein kinase 8 (Homo sapiens), sequence (P45983 whole entry): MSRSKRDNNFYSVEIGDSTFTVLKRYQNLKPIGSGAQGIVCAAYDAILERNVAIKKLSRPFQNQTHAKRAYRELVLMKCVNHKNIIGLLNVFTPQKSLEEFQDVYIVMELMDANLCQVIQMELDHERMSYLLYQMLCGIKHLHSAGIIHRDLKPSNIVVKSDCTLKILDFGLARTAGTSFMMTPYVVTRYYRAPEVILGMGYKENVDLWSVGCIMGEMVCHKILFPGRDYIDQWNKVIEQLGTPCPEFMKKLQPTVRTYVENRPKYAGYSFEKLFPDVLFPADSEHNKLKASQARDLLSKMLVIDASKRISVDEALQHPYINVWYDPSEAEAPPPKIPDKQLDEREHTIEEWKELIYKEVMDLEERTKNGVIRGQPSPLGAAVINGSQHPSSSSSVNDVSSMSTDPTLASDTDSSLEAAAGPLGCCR
Tyrosine-protein kinase CSK (Homo sapiens), sequence (P41240 2-450 limits assumed): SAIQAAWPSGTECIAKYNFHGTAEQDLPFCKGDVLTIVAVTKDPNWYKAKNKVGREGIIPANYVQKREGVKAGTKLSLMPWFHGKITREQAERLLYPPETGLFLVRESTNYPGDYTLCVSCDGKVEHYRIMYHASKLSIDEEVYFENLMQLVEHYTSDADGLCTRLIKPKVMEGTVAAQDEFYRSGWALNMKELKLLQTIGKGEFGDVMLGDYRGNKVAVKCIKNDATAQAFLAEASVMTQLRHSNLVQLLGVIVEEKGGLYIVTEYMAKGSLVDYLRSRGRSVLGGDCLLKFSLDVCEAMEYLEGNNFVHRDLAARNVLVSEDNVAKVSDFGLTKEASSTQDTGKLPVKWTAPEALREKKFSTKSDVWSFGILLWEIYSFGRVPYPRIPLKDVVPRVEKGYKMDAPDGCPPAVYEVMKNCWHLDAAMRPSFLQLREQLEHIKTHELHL
Serine/threonine-protein kinase Nek6 (Homo sapiens), sequence (Q9HC98 whole entry, the tested form may be a part): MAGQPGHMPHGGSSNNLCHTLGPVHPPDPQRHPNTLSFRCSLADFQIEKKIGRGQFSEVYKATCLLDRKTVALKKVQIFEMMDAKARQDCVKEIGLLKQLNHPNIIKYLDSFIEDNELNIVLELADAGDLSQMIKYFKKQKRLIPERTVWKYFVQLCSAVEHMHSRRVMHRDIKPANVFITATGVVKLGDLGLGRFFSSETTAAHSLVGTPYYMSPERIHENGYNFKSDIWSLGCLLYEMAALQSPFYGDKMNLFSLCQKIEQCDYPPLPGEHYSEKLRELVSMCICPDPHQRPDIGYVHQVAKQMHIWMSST

Question: Which inhibition [1] does the source give for O=C(Nc1cc(Nc2c(Cl)cnc3c2OCO3)ccn1)C1CC1 here?
Answer: < 80%

Question: And the inhibition [2]?
Answer: < 80%

Question: And the inhibition (Homo sapiens)?
Answer: < 80%

Question: What about the inhibition [3] of the same molecule?
Answer: < 80%

Question: What about the INH [4] of the same molecule?
Answer: 0.12 µM

Question: What about the IC50 [5] of the same molecule?
Answer: 1.1 nM

Question: And the inhibition [6]?
Answer: < 80%

Question: And the logD [7]?
Answer: 2.7

Question: What about the inhibition [8] of the same molecule?
Answer: < 80%

Question: And the inhibition [9]?
Answer: < 80%

Question: And the inhibition [10]?
Answer: < 80%

Question: And the inhibition [11]?
Answer: > 50%

Question: And the inhibition [12]?
Answer: < 80%

Question: And the IC50 [13]?
Answer: 2.4 nM

Question: And the inhibition [14]?
Answer: < 80%

Question: What about the inhibition [15] of the same molecule?
Answer: < 80%

Question: What about the inhibition [16] of the same molecule?
Answer: < 80%

Question: What about the inhibition [17] of the same molecule?
Answer: < 80%

Question: And the IC50 (Activin receptor type-1B)?
Answer: 31 nM

Question: And the inhibition [18]?
Answer: < 80%

Question: What about the inhibition [19] of the same molecule?
Answer: < 80%

Question: What about the solubility [20] of the same molecule?
Answer: 63 µM (≈ 21 µg/mL)

Question: What about the fCmax (Mus musculus) of the same molecule?
Answer: 31.7 µM

Question: And the inhibition [21]?
Answer: < 80%

Question: What about the inhibition [22] of the same molecule?
Answer: < 80%

Question: And the inhibition [23]?
Answer: < 80%

Question: What about the inhibition [24] of the same molecule?
Answer: < 80%

Question: What about the INH [25] of the same molecule?
Answer: 4.4 µM

Question: What about the clearance [26] of the same molecule?
Answer: 8.4 mL/min/kg

Question: What about the inhibition [27] of the same molecule?
Answer: < 80%

Question: What about the inhibition [28] of the same molecule?
Answer: < 80%

Question: What about the inhibition [29] of the same molecule?
Answer: < 80%

Question: And the Ratio [30]?
Answer: > 10

Question: What about the inhibition [31] of the same molecule?
Answer: < 80%

Question: And the inhibition [32]?
Answer: < 80%

Question: What about the inhibition [33] of the same molecule?
Answer: < 80%
